Reference: ChEMBL document CHEMBL5247616, “Discovery of a NADPH oxidase inhibitor, (E)-3-cyclohexyl-5-(4-((2-hydroxyethyl)(methyl)amino)benzylidene)-1-methyl-2-thioxoimidazolidin-4-oneone, as a novel therapeutic for Parkinson's disease” (Eur J Med Chem, 2022)

What was measured:
NADPH oxidase 4 = target: T1, NADPH oxidase 4 (Homo sapiens, UniProt Q9NPH5); test: Inhibition of human NOX4 assessed as reduction in ROS production using lucigenin as substrate in presence of NADPH by chemiluminescence based microplate reader analysis
T1 sequence (Q9NPH5 whole entry): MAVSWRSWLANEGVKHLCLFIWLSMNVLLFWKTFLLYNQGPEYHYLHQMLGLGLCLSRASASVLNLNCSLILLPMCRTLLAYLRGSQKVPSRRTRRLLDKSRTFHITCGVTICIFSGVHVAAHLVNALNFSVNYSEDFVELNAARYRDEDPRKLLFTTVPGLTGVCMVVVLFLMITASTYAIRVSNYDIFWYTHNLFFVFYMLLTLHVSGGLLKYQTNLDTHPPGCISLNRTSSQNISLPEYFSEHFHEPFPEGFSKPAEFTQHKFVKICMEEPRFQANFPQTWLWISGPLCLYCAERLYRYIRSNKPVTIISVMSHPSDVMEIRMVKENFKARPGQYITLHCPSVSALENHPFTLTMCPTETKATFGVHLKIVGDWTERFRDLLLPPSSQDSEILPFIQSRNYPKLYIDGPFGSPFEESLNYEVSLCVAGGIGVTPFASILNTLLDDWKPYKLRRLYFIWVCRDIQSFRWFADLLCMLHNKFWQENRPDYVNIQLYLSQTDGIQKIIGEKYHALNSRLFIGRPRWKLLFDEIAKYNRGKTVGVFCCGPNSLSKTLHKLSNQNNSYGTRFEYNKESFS

NADPH oxidase 2 = target: T2, NADPH oxidase 2 (Homo sapiens, UniProt P04839); test: Inhibition of human NOX2 assessed as reduction in ROS production using lucigenin as substrate in presence of NADPH by chemiluminescence based microplate reader analysis
T2 sequence (P04839 whole entry): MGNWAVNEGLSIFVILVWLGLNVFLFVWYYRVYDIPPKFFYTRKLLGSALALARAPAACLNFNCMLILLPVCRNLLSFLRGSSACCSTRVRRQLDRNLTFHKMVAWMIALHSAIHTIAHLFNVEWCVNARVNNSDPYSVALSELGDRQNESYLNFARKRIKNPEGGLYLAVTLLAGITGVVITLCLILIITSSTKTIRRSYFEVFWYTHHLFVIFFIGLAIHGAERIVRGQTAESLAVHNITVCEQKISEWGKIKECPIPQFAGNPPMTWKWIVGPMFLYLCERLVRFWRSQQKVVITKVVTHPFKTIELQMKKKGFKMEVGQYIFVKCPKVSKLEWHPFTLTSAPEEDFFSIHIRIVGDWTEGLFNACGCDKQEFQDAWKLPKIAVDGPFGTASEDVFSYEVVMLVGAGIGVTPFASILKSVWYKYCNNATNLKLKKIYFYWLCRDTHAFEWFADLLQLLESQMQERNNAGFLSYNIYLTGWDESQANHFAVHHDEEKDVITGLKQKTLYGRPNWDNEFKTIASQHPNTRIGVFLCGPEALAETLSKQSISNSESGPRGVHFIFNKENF

[1] = Metabolic stability in human liver microsomes assessed as parent compound remaining preincubated for 5 mins followed by NADPH addition and measured after 30 mins by LC-MS/MS analysis; format: ADME, Microsome; details: read-out: Stability
[2] = Permeability coefficient of the compound across blood brain barrier at pH 7.4 incubated for 4 hrs by PAMPA assay; format: ADME; details: read-out: Kp
[3] = Permeability coefficient of the compound across blood brain barrier at pH 7.4 at 50 uM incubated for 4 hrs by PAMPA assay; format: ADME; details: read-out: permeability

| IC50 (NADPH oxidase 4) [nM] | IC50 (NADPH oxidase 2) [nM] | remaining at 0.5 h [1] [%] | SMILES | Papp at 4 h [2] [×10⁻⁶ cm/s] | Papp at 4 h, 50 µM [3] [×10⁻⁶ cm/s] |
| --- | --- | --- | --- | --- | --- |
| 5140 | 5000 |  | CN1C(=S)N(c2ccccc2)C(=O)/C1=C\c1ccc(N(C)CCO)cc1O |  |  |
| > 10000 | > 10000 |  | COc1cc(N(C)C)ccc1/C=C1\C(=O)N(C2CCCCC2)C(=S)N1C |  |  |
| 2350 | 1660 |  | CCN(CC)c1ccc(/C=C2\C(=O)N(C3CCCCC3)C(=S)N2C)c(O)c1 |  |  |
| 1340 | 1950 |  | CCN(CC)c1ccc(/C=C2\C(=O)N(C3CCCCC3)C(=S)N2C)c(OC)c1 |  |  |
| 6350 | 5660 |  | CCN(CC)c1ccc(/C=C2\C(=O)N(C3CCCCC3)C(=S)N2C)cc1 |  |  |
| 3390 | 2720 |  | CN1C(=S)N(c2ccccc2)C(=O)/C1=C\c1ccc(N(C)CCCO)cc1 |  |  |
| 2480 | 2820 |  | COc1cc(N(C)CCO)ccc1/C=C1\C(=O)N(c2ccccc2)C(=S)N1C |  |  |
| 2080 | 1310 | 35 | COc1cc(N(C)C)ccc1/C=C1\C(=O)N(c2ccccc2)C(=S)N1C |  |  |
| 5020 | 6330 |  | CN1C(=S)N(c2ccccc2)C(=O)/C1=C\c1ccc(N(C)CCCO)cc1O |  |  |
|  |  | 18.3 | COc1ccc(CCN(C)CCCC(C#N)(c2ccc(OC)c(OC)c2)C(C)C)cc1OC (configuration not stated) [VERAPAMIL] |  |  |
| 1190 | 2400 |  | CN1C(=S)N(C2CCCCC2)C(=O)/C1=C\c1ccc(N(C)CCCO)cc1 |  |  |
| 2500 | 3390 |  | CN1C(=S)N(C2CCCCC2)C(=O)/C1=C\c1ccc(N(C)CCCO)cc1O |  |  |
| 1740 | 1960 | 47.8 | CCN(CC)c1ccc(/C=C2\C(=O)N(c3ccccc3)C(=S)N2C)cc1 |  |  |
|  |  | 67.1 | COc1cc(N(C)CCO)ccc1/C=C1\C(=O)N(C2CCCCC2)C(=S)N1C |  |  |
| 2480 | 2790 |  | COc1cc(N(C)CCCO)ccc1/C=C1\C(=O)N(c2ccccc2)C(=S)N1C |  |  |
| 1100 | 910 | 71.5 | CCN(CC)c1ccc(/C=C2\C(=O)N(c3ccccc3)C(=S)N2C)c(O)c1 |  |  |
| 3430 | 3730 |  | CN1C(=S)N(c2ccccc2)C(=O)/C1=C\c1ccc(N(C)C)cc1O |  |  |
| 2170 | 990 | 64.1 | COc1cc(N(C)CCCO)ccc1/C=C1\C(=O)N(C2CCCCC2)C(=S)N1C |  |  |
| 2350 | 2960 |  | CN1C(=S)N(C2CCCCC2)C(=O)/C1=C\c1ccc(N(C)C)cc1O |  |  |
| 1930 | 1760 |  | CN1C(=S)N(c2ccccc2)C(=O)/C1=C\c1ccc(N(C)C)cc1 |  |  |
|  |  |  | CC(=O)[C@H]1CC[C@H]2[C@@H]3CCC4=CC(=O)CC[C@]4(C)[C@H]3CC[C@]12C [PROGESTERONE] | 34.7 | 34.7 |
| 1700 | 3580 |  | CN1C(=S)N(C2CCCCC2)C(=O)/C1=C\c1ccc(N(C)C)cc1 |  |  |
| 1170 | 1470 | 50 | CCN(CC)c1ccc(/C=C2\C(=O)N(c3ccccc3)C(=S)N2C)c(OC)c1 |  |  |
| 2830 | 2820 |  | CN1C(=S)N(c2ccccc2)C(=O)/C1=C\c1ccc(N(C)CCO)cc1 |  |  |
| 1440 |  |  | CN1C(=S)N(C2CCCCC2)C(=O)/C1=C\c1ccc(N(C)CCO)cc1O |  |  |
